This note sets out measurements from ChEMBL document CHEMBL5120781, “α-Glucosidase Inhibitors from the Stems of Knema globularia” (J Nat Prod, 2022).

Each structure is given as a SMILES string. The source made the active and inactive calls. No cut-off for these calls is given here.

Biological target in the first test: not listed separately
Kind of test: Inhibition of yeast alpha-glucosidase using p-nitrophenyl-alpha-D-glucopyranoside as substrate preincubated with enzyme for 10 mins followed by substrate addition measured after 20 mins by spectrophotometric method. On the set-up: species or system Saccharomyces cerevisiae.
Consider `O=C(/C=C/c1ccc(O)c([C@@H]2C(=O)c3c(O)cc(O)cc3O[C@H]2c2ccc(O)cc2)c1)c1ccc(O)cc1O`, for which the IC50 was determined as 2500 nM.

As to `O=C(/C=C/c1ccc2c(c1)[C@H](C(=O)c1ccc(O)cc1O)[C@@H](c1ccc(O)cc1)O2)c1ccc(O)cc1O`, the half-inhibitory concentration (IC50) was 2300 nM. This IC50 and that of the compound before are within 1.5-fold of each other.

In the case of `O=C(/C=C/c1ccc2c(c1)[C@@H](C(=O)c1ccc(O)cc1O)[C@H](c1ccc(O)cc1)O2)c1ccc(O)cc1O`, half-maximal inhibition (IC50) was put at 5600 nM.

Compound `CCCCCCCCCCCC1=C(O)C(=O)C2=C(Oc3cc(O)c4c(c3C2(C)C)O[C@@H](c2ccc(O)c(O)c2)[C@H](O)C4)C1=O` came in with an IC50 of 2000 nM.

With `O=C(/C=C/c1ccc2oc(-c3ccc(O)cc3)c(C(=O)c3ccc(O)cc3O)c2c1)c1ccc(O)cc1O`, the half-maximal inhibitory concentration (IC50) came out at 3200 nM.

Turning to `COc1ccc(-c2coc3cc4c(c(OC)c3c2=O)OCO4)cc1OC`, half-maximal inhibition (IC50) required 178000 nM.

Turning to `CCCCCCCCCCCCCC1=C(O)C(=O)C2=C(Oc3cc(O)c4c(c3C2(C)C)O[C@@H](c2ccc(O)c(O)c2)[C@H](O)C4)C1=O`, the IC50 was 1600 nM.

`CCCCCCCCCCCCCC1=C(O)C(=O)C=C(O)C1=O` [Rapanone] had a 50% inhibitory concentration (IC50) of 1800 nM.

`O=C(CCc1ccc(O)cc1)c1c(O)cc(O)c2c(C(=O)c3ccc(O)cc3O)c(-c3ccc(O)cc3)oc12` displayed a half-maximal inhibitory concentration (IC50) of 400 nM.

Consider `O=C(/C=C/c1ccc(O)cc1)c1c(O)cc(O)c2c(C(=O)c3ccc(O)cc3O)c(-c3ccc(O)cc3)oc12`, for which half-maximal inhibition (IC50) was put at 1300 nM.

Compound `CCCCCCCCCCCC1=C(O)C(=O)C=C(O)C1=O` [EMBELIN] registered an IC50 of 2400 nM.

The compound `C[C@H]1O[C@H](O[C@H]2[C@H](O)[C@@H](O)[C@@H](O[C@H]3[C@H](O)[C@@H](O)C(O)O[C@@H]3CO)O[C@@H]2CO)[C@H](O)[C@@H](O)[C@@H]1N[C@H]1C=C(CO)[C@@H](O)[C@H](O)[C@H]1O` (stereo partly drawn) [ACARBOSE] had an IC50 of 93600 nM.

Consider `CCCCCCCCCCCCCCCC1=C(O)C(=O)C2=C(Oc3cc(O)c4c(c3C2(C)C)O[C@@H](c2ccc(O)c(O)c2)[C@H](O)C4)C1=O`, for which the concentration for half-maximal inhibition (IC50) was determined as 1400 nM.

On to `COc1ccc(C(=O)[C@@H](c2coc3cc(O)ccc3c2=O)C(c2ccc(O)cc2)c2ccc(O)cc2)c(O)c1`, for which it took 6100 nM to reach half-maximal inhibition (IC50). Against the preceding compound, the IC50 is about 4.4-fold higher.

`O=C(C[C@@H]1C(=O)c2ccc(O)cc2O[C@H]1c1ccc(O)cc1)c1ccc(O)cc1O` returned a concentration for half-maximal inhibition (IC50) of 26600 nM.

`COc1ccc(-c2coc3cc4c(c(OC)c3c2=O)OCO4)cc1` returned an IC50 of more than 200000 nM.

Biological target in a further test: not listed separately
Briefly: Non-competitive inhibition of yeast alpha-glucosidase using p-nitrophenyl-alpha-D-glucopyranoside as substrate by Lineweaver-Burk double reciprocal plot analysis. On the set-up: species or system Saccharomyces cerevisiae.
Take `O=C(CCc1ccc(O)cc1)c1c(O)cc(O)c2c(C(=O)c3ccc(O)cc3O)c(-c3ccc(O)cc3)oc12`: affinity was put at a Ki of 3400 nM.

In another test the test system is Saccharomyces cerevisiae. Briefly: Non-competitive inhibition of yeast alpha-glucosidase assessed as decrease in Vmax with constant Km using p-nitrophenyl-alpha-D-glucopyranoside as substrate by Lineweaver-Burk double reciprocal plot analysis.
With `O=C(CCc1ccc(O)cc1)c1c(O)cc(O)c2c(C(=O)c3ccc(O)cc3O)c(-c3ccc(O)cc3)oc12`, the inhibition result was “Active”.
